For `O=C1CCCCC1Sc1ncccn1` (stereo not shown) [Compound 03-43, 2-(Pyrimidin-2-ylsulfanyl)-cyclohexanone], the melting point was 51 °C.
